According to patent publication US11718592B2, “Oxadiazole derivative” (Sumitomo Pharma Co., Ltd., priority 2020, dated 2023):
Read-outs that look alike come from different tables or passages of the source.

Experiments:
Slc: ddy male mice = conditions: mouse, in vivo, po, 1 h
Method: The present test is a test for evaluating whether the test compound may disturb coordinated movement or not. Rotarod is an apparatus equipped with a rotating columnar bar whose diameter is 4 cm, in which a mouse is made to walk on the rotating bar, and the coordinated movement is evaluated from the result of walking (can walk or cannot walk). Slc: ddy male mice (purchased from Japan SLC, Inc., body weight: 20-30 g) were trained 3 hours before the test starts so that they could walk on a rotarod apparatus rotating with a speed of 12 rotations per minute for 5 minutes without falling. Only the mice which can walk in the training are used in the test. The test compound was orally administered to a group consisting of 5 mice. […] To control mice, 0.5% methylcellulose solution was administered as test compound, and the same test was also done. The coordinated movement was evaluated with the average of the five mice's walking time (second).

GABA(A) receptors = test: Evaluation of the potentiating effect on GABA(A) receptors (electrophysiology, GABA(A) receptor expressing cells); assay type: cell-based; conditions: for The potentiating effect on GABA(A) receptors EC20: concentration giving 20% increase of the current generated by 2 μM GABA; for Inhibition rate to the increased electric current by adding flumazenil: 2 μM GABA and test compound with 10 μM flumazenil; for inhibition of the potentiating effect on GABA(A) receptors with flumazenil (in words): benzodiazepine antagonist
Method: Using GABA(A) receptor expressing cells prepared according to Guideline for Generation of Stable Cell Lines (website of Lonza Japan; Non-patent Literature 4), the present test is done for evaluating the potentiating effect of a drug on GABA(A) receptors based on the electric current raised by GABA. The GABA(A) receptor expressing cells were used in electrophysiological study, wherein the electric current was measured when 2 μM GABA solution and then a mixture of 2 μM GABA and the test compound were added to the cells. […] In addition, the electric current generated by a mixture of 2 μM GABA solution and the test compound with 10 μM flumazenil was measured, and the inhibition rate for the electric current by adding flumazenil was calculated compared to the electric current obtained in the absence of flumazenil.

BALB/c-Scn1a<+/−> mice = test: Anticonvulsant effect in mouse model of Dravet syndrome with febrile seizures; assay type: in vivo; conditions: oral; for Difference of the threshold temperature of convulsion from that of the control group: at the dose for anticonvulsive effect, hyperthermia 50 minutes after dosing; for Dose for anticonvulsive effect: dose needed to raise the threshold body temperature for inducing febrile seizures significantly compared with the control group
From the text: This is a test for evaluating the anticonvulsant effect for febrile seizures of the test compounds in a mouse model of Dravet syndrome. In this test, BALB/c-Scn1a<+/−> mice were used (catalog number: RBRC06422; they are available from RIKEN BioResource Research Center via the National BioResource Project). The present mouse model having a mutation in a responsible gene for Dravet syndrome, Scn1A, presents with symptoms similar to febrile seizures caused by hyperthermia which is a symptom in a patient suffering from Dravet syndrome, and can be used as an animal model of spontaneous Dravet syndrome (for reference: the Japan Epilepsy Research Foundation, Annual Report 2015: 26: 69-76). To male mice model of Dravet syndrome (one group: 5-8 mice, body weight: 20-30 g) were orally administered the test compound. 50 minutes later, the mice were put in a chamber warmed with hot bath to evoke hyperthermia, and observed about the development of febrile seizures. Immediately after febrile seizure was developed, the rectal temperature was measured and used as the threshold body temperature for inducing febrile seizures.

male Wister strain rats = test: Antidepressant effect in rat forced swimming test; assay type: in vivo
From the text: The present test can evaluate antidepressant effect of a drug. When a rat is thrown into a water bath from which the rat cannot escape to be made to swim, the rat takes on escape behavior in the beginning and then becomes immobile. Next day, when the rat is thrown into a water bath again, the immobility appears earlier than that of the first trial. The method can evaluate the antidepressant effect of a test compound by using the duration of the immobility time as an indicator of depressive behavior. A day before the test, male Wister strain rats (purchased from Charles River Laboratories Japan, body weight: 260-300 g) were made to swim in a water bath for 15 minutes. On the test day, the test compound was orally administered to the rats (10-12 rats in one group). An hour later, the rats were made to swim again for 5 minutes and each immobility time was measured. In the control group, 0.5% methylcellulose solution as the test compound was administered to the rats which were subjected to the same behavior test. The antidepressant effect was indicated by the average rate of deceasing the immobility time per that of the control group.

## CC(C)(C(N)=O)c1nc(-c2ccc(F)cc2)no1 [Example 1, 2-[3-(4-Fluorophenyl)-1,2,4-oxadiazol-5-yl]-2-methylpropanamide]
Slc: ddy male mice; 100 mg/kg
  average of the five mice's walking time: 180 s
GABA(A) receptors
  The potentiating effect on GABA(A) receptors EC20: 55 µM

## CC(C)(C(N)=O)c1nc(-c2ccc(Cl)cc2)no1 [Example 2, 2-[3-(4-chlorophenyl)-1,2,4-oxadiazol-5-yl]-2-methylpropanamide]
BALB/c-Scn1a<+/−> mice
  Difference of the threshold temperature of convulsion from that of the control group: 0.6 °C
  Dose for anticonvulsive effect: 50 mg/kg
Slc: ddy male mice; 100 mg/kg
  average of the five mice's walking time: 180 s
GABA(A) receptors
  Inhibition rate to the increased electric current by adding flumazenil: <0%
  The potentiating effect on GABA(A) receptors EC20: 29 µM

## CC(C)(C(N)=O)c1nc(-c2ccc(Br)cc2)no1 [Example 3, 2-[3-(4-bromophenyl)-1,2,4-oxadiazol-5-yl]-2-methylpropanamide]
BALB/c-Scn1a<+/−> mice
  Difference of the threshold temperature of convulsion from that of the control group: 0.7 °C
  Dose for anticonvulsive effect: 100 mg/kg
Slc: ddy male mice; 100 mg/kg
  average of the five mice's walking time: 180 s
GABA(A) receptors
  Inhibition rate to the increased electric current by adding flumazenil: <0%
  The potentiating effect on GABA(A) receptors EC20: 29 µM

## NC(=O)C1(c2nc(-c3ccc(F)cc3)no2)CC1 [Example 4, 1-[3-(4-fluorophenyl)-1,2,4-oxadiazol-5-yl]cyclopropane-1-carboxamide]
Slc: ddy male mice; 100 mg/kg
  average of the five mice's walking time: 180 s
GABA(A) receptors
  The potentiating effect on GABA(A) receptors EC20: >100 µM

## NC(=O)C1(c2nc(-c3ccc(Cl)cc3)no2)CC1 [Example 5, 1-[3-(4-chlorophenyl)-1,2,4-oxadiazol-5-yl]cyclopropane-1-carboxamide]
Slc: ddy male mice; 100 mg/kg
  average of the five mice's walking time: 180 s
GABA(A) receptors
  The potentiating effect on GABA(A) receptors EC20: >300 µM

## NC(=O)C1(c2nc(-c3ccc(Cl)cc3)no2)CC(F)C1 (centres unmarked) [Example 6, 1-[3-(4-chlorophenyl)-1,2,4-oxadiazol-5-yl]-3-fluorocyclobutane-1-carboxamide]
Slc: ddy male mice; 100 mg/kg
  average of the five mice's walking time: 180 s
GABA(A) receptors
  The potentiating effect on GABA(A) receptors EC20: 3.3 µM

## NC(=O)C1(c2nc(-c3ccc(Cl)cc3)no2)CC(F)(F)C1 [Example 7, 1-[3-(4-chlorophenyl)-1,2,4-oxadiazol-5-yl]-3,3-difluorocyclobutane-1-carboxamide]
Slc: ddy male mice; 100 mg/kg
  average of the five mice's walking time: 180 s
GABA(A) receptors
  The potentiating effect on GABA(A) receptors EC20: 5.4 µM

## NC(=O)C1(c2nc(-c3ccc(Cl)cc3)no2)CCC1 [Example 8, 1-[3-(4-chlorophenyl)-1,2,4-oxadiazol-5-yl]cyclobutane-1-carboxamide]
Slc: ddy male mice; 100 mg/kg
  average of the five mice's walking time: 180 s
GABA(A) receptors
  The potentiating effect on GABA(A) receptors EC20: 3.2 µM

## NC(=O)C1(c2nc(-c3ccc(Cl)cc3)no2)CCCC1 [Example 9, 1-[3-(4-chlorophenyl)-1,2,4-oxadiazol-5-yl]cyclopentane-1-carboxamide]
Slc: ddy male mice; 100 mg/kg
  average of the five mice's walking time: 180 s
GABA(A) receptors
  The potentiating effect on GABA(A) receptors EC20: 2.7 µM

## NC(=O)C1(c2nc(-c3ccc(F)cc3)no2)CCOCC1 [Example 10, 4-[3-(4-fluorophenyl)-1,2,4-oxadiazol-5-yl]tetrahydro-2H-pyran-4-carboxamide]
Slc: ddy male mice; 100 mg/kg
  average of the five mice's walking time: 180 s
GABA(A) receptors
  The potentiating effect on GABA(A) receptors EC20: 247 µM

## CC(C)(C(N)=O)c1noc(-c2ccc(F)cc2)n1 [Example 12, 2-[5-(4-fluorophenyl)-1,2,4-oxadiazol-3-yl]-2-methylpropanamide]
Slc: ddy male mice; 100 mg/kg
  average of the five mice's walking time: 180 s
GABA(A) receptors
  The potentiating effect on GABA(A) receptors EC20: 234 µM

## CC(C)(C(N)=O)c1noc(-c2ccc(Cl)cc2)n1 [Example 13, 2-[5-(4-chlorophenyl)-1,2,4-oxadiazol-3-yl]-2-methylpropanamide]
BALB/c-Scn1a<+/−> mice
  Difference of the threshold temperature of convulsion from that of the control group: 0.6 °C
  Dose for anticonvulsive effect: 50 mg/kg
Slc: ddy male mice; 100 mg/kg
  average of the five mice's walking time: 180 s
GABA(A) receptors
  Inhibition rate to the increased electric current by adding flumazenil: <0%
  The potentiating effect on GABA(A) receptors EC20: 71 µM

## CC(C)(C(N)=O)c1noc(-c2ccc(Br)cc2)n1 [Example 14, 2-[5-(4-bromophenyl)-1,2,4-oxadiazol-3-yl]-2-methylpropanamide]
Slc: ddy male mice; 100 mg/kg
  average of the five mice's walking time: 180 s
GABA(A) receptors
  The potentiating effect on GABA(A) receptors EC20: 32 µM

## CC(C)(C(N)=O)c1nnc(-c2ccc(Cl)cc2)o1 [Example 15, 2-[5-(4-chlorophenyl)-1,3,4-oxadiazol-2-yl]-2-methylpropanamide]
Slc: ddy male mice; 100 mg/kg
  average of the five mice's walking time: 180 s
GABA(A) receptors
  The potentiating effect on GABA(A) receptors EC20: >300 µM

## CC(C)(c1nc(-c2ccc(F)cc2)no1)S(N)(=O)=O [Example 17, 2-[3-(4-Fluorophenyl)-1,2,4-oxadiazol-5-yl]propane-2-sulfonamide]
Slc: ddy male mice; 100 mg/kg
  average of the five mice's walking time: 180 s
GABA(A) receptors
  The potentiating effect on GABA(A) receptors EC20: 45 µM

## CC(C)(c1nc(-c2ccc(Cl)cc2)no1)S(N)(=O)=O [Example 18, 2-[3-(4-chlorophenyl)-1,2,4-oxadiazol-5-yl]propane-2-sulfonamide]
Slc: ddy male mice; 100 mg/kg
  average of the five mice's walking time: 180 s
GABA(A) receptors
  Inhibition rate to the increased electric current by adding flumazenil: <0%
  The potentiating effect on GABA(A) receptors EC20: 37 µM

## CC(C)(c1nc(-c2ccc(Br)cc2)no1)S(N)(=O)=O [Example 19, 2-[3-(4-bromophenyl)-1,2,4-oxadiazol-5-yl]propane-2-sulfonamide]
Slc: ddy male mice; 100 mg/kg
  average of the five mice's walking time: 180 s
GABA(A) receptors
  The potentiating effect on GABA(A) receptors EC20: 34 µM

## CC(C)(c1noc(-c2ccc(Cl)cc2)n1)S(N)(=O)=O [Example 20, 2-[5-(4-chlorophenyl)-1,2,4-oxadiazol-3-yl]propane-2-sulfonamide]
BALB/c-Scn1a<+/−> mice
  Difference of the threshold temperature of convulsion from that of the control group: 0.6 °C
  Dose for anticonvulsive effect: 100 mg/kg
Slc: ddy male mice; 100 mg/kg
  average of the five mice's walking time: 180 s
GABA(A) receptors
  Inhibition rate to the increased electric current by adding flumazenil: 55%
  The potentiating effect on GABA(A) receptors EC20: 20 µM

## CC(C)(c1noc(-c2ccc(Br)cc2)n1)S(N)(=O)=O [Example 21, 2-[5-(4-bromophenyl)-1,2,4-oxadiazol-3-yl]propane-2-sulfonamide]
Slc: ddy male mice; 100 mg/kg
  average of the five mice's walking time: 180 s
GABA(A) receptors
  The potentiating effect on GABA(A) receptors EC20: 9.6 µM

## CC(C)(c1nnc(-c2ccc(F)cc2)o1)S(N)(=O)=O [Example 22, 2-[5-(4-fluorophenyl)-1,3,4-oxadiazol-2-yl]propane-2-sulfonamide]
Slc: ddy male mice; 100 mg/kg
  average of the five mice's walking time: 180 s
GABA(A) receptors
  The potentiating effect on GABA(A) receptors EC20: >300 µM

## CC(C)(c1nnc(-c2ccc(Cl)cc2)o1)S(N)(=O)=O [Example 23, 2-[5-(4-chlorophenyl)-1,3,4-oxadiazol-2-yl]propane-2-sulfonamide]
Slc: ddy male mice; 100 mg/kg
  average of the five mice's walking time: 180 s
GABA(A) receptors
  The potentiating effect on GABA(A) receptors EC20: 190 µM

## CC(C)(c1nnc(-c2ccc(Br)cc2)o1)S(N)(=O)=O [Example 24, 2-[5-(4-bromophenyl)-1,3,4-oxadiazol-2-yl]propane-2-sulfonamide]
Slc: ddy male mice; 100 mg/kg
  average of the five mice's walking time: 180 s
GABA(A) receptors
  The potentiating effect on GABA(A) receptors EC20: 86 µM

## CN1C(=O)CCC1c1nc(-c2ccc(F)cc2F)no1 (centres unmarked) [Example 26, 5-[3-(2,4-difluorophenyl)-1,2,4-oxadiazol-5-yl]-1-methylpyrrolidin-2-one]
Slc: ddy male mice; 50 mg/kg
  average of the five mice's walking time: 180 s
GABA(A) receptors
  The potentiating effect on GABA(A) receptors EC20: >100 µM

## CN1C(=O)CCC1c1nc(-c2ccc(F)c(F)c2)no1 (centres unmarked) [Example 27, 5-[3-(3,4-difluorophenyl)-1,2,4-oxadiazol-5-yl]-1-methylpyrrolidin-2-one]
Slc: ddy male mice; 50 mg/kg
  average of the five mice's walking time: 180 s
GABA(A) receptors
  Inhibition rate to the increased electric current by adding flumazenil: <0%
  The potentiating effect on GABA(A) receptors EC20: 39 µM

## CN1C(=O)CC(=O)N(c2ccccc2)c2cc(Cl)ccc21 [clobazam, reference compound]
GABA(A) receptors
  Inhibition rate to the increased electric current by adding flumazenil: 88%
  The potentiating effect on GABA(A) receptors EC20: 0.34 µM
  inhibition of the potentiating effect on GABA(A) receptors with flumazenil (in words): strongly inhibited

## CN1C(=O)CN=C(c2ccccc2)c2cc(Cl)ccc21 [diazepam, reference compound]
Male Wister strain rats; oral
  antidepressant effect / immobility time (in words): did not show antidepressant effect
Male Wister strain rats; oral 10 mg/kg, swim 5 minutes an hour later
  average rate of deceasing the immobility time per that of the control group: 18.3
GABA(A) receptors
  potentiating effect on GABA(A) receptors (in words): has the potentiating effect on GABA(A) receptors
  Inhibition rate to the increased electric current by adding flumazenil: 93%
  The potentiating effect on GABA(A) receptors EC20: 0.03 µM
  inhibition of the potentiating effect on GABA(A) receptors with flumazenil (in words): strongly inhibited
